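Step 1: Grow cells in 96-well plates. Step 2: Expose to compound for 48 hours at 5 concentrations. Step 3: Interpolate endpoints linearly; if unreached, use highest concentration. The concentration for full growth arrest is given as TGI.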
Experiments:
Experiment in all cases: inhibition of tumour cell growth, NCI panel, 48 h
A498 renal = tested on: A498 renal
OVCAR-8 ovarian = tested on: OVCAR-8 ovarian
CCRF-CEM leukemia = tested on: CCRF-CEM leukemia
HT29 colon = tested on: HT29 colon
UACC-62 melanoma = tested on: UACC-62 melanoma
786-0 renal = tested on: 786-0 renal
HCC-2998 colon = tested on: HCC-2998 colon
RXF 393 renal = tested on: RXF 393 renal
SF-295 CNS = tested on: SF-295 CNS
RPMI-8226 leukemia = tested on: RPMI-8226 leukemia
SF-268 CNS = tested on: SF-268 CNS
HOP-92 NSCLC = tested on: HOP-92 NSCLC
HL-60(TB) leukemia = tested on: HL-60(TB) leukemia
HCT-15 colon = tested on: HCT-15 colon
K-562 leukemia = tested on: K-562 leukemia
NCI-H23 lung = tested on: NCI-H23 lung
CAKI-1 renal = tested on: CAKI-1 renal
SF-539 CNS = tested on: SF-539 CNS
KM12 colon = tested on: KM12 colon
ACHN renal = tested on: ACHN renal
UO-31 renal = tested on: UO-31 renal
OVCAR-5 ovarian = tested on: OVCAR-5 ovarian
LXFL 529 NSCLC = tested on: LXFL 529 NSCLC
HOP-62 NSCLC = tested on: HOP-62 NSCLC
HCT-116 colon = tested on: HCT-116 colon
NCI-H460 lung = tested on: NCI-H460 lung
SK-MEL-5 melanoma = tested on: SK-MEL-5 melanoma
COLO 205 colon = tested on: COLO 205 colon
OVCAR-3 ovarian = tested on: OVCAR-3 ovarian
NCI-H226 lung = tested on: NCI-H226 lung
XF 498 CNS = tested on: XF 498 CNS
M14 melanoma = tested on: M14 melanoma
DMS 114 small cell lung = tested on: DMS 114 small cell lung
IGROV1 ovarian = tested on: IGROV1 ovarian
TK-10 renal = tested on: TK-10 renal
OVCAR-4 ovarian = tested on: OVCAR-4 ovarian
RXF-631 renal = tested on: RXF-631 renal
EKVX NSCLC = tested on: EKVX NSCLC
SNB-78 CNS = tested on: SNB-78 CNS
MALME-3M melanoma = tested on: MALME-3M melanoma
SNB-75 CNS = tested on: SNB-75 CNS
U251 CNS = tested on: U251 CNS
M19-MEL melanoma = tested on: M19-MEL melanoma
SK-OV-3 ovarian = tested on: SK-OV-3 ovarian
SN12C renal = tested on: SN12C renal
A549 NSCLC = tested on: A549 NSCLC
SW-620 colon = tested on: SW-620 colon
DLD-1 colon = tested on: DLD-1 colon
SNB-19 CNS = tested on: SNB-19 CNS
KM20L2 colon = tested on: KM20L2 colon
SK-MEL-28 melanoma = tested on: SK-MEL-28 melanoma
NCI-H522 lung = tested on: NCI-H522 lung
LOX IMVI melanoma = tested on: LOX IMVI melanoma
DMS 273 small cell lung = tested on: DMS 273 small cell lung
UACC-257 melanoma = tested on: UACC-257 melanoma
MOLT-4 leukemia = tested on: MOLT-4 leukemia
SR leukemia = tested on: SR leukemia
SK-MEL-2 melanoma = tested on: SK-MEL-2 melanoma

Structure (SMILES): COC(=O)C(Cc1c[nH]c2ccccc12)NC(=O)C(Cc1c[nH]c2ccccc12)NC(=O)OCc1ccccc1 (configuration not stated)
- TGI (A498 renal): > 100 µM
- TGI (OVCAR-8 ovarian): 31.7 µM
- TGI (CCRF-CEM leukemia): 61.3 µM
- TGI (HT29 colon): 34.7 µM
- TGI (UACC-62 melanoma): 33.4 µM
- TGI (786-0 renal): 29.7 µM
- TGI (HCC-2998 colon): 31.6 µM
- TGI (RXF 393 renal): 35.1 µM
- TGI (SF-295 CNS): 31.9 µM
- TGI (RPMI-8226 leukemia): 34.6 µM
- TGI (SF-268 CNS): 34.6 µM
- TGI (HOP-92 NSCLC): 48.6 µM
- TGI (HL-60(TB) leukemia): 48.7 µM
- TGI (HCT-15 colon): 31.3 µM
- TGI (K-562 leukemia): 56.6 µM
- TGI (NCI-H23 lung): 32.2 µM
- TGI (CAKI-1 renal): 40 µM
- TGI (SF-539 CNS): 30.4 µM
- TGI (KM12 colon): 33.5 µM
- TGI (ACHN renal): 39.2 µM
- TGI (UO-31 renal): 44 µM
- TGI (OVCAR-5 ovarian): 31.5 µM
- TGI (LXFL 529 NSCLC): 31.2 µM
- TGI (HOP-62 NSCLC): 37.6 µM
- TGI (HCT-116 colon): 32.4 µM
- TGI (NCI-H460 lung): 32 µM
- TGI (SK-MEL-5 melanoma): 82.2 µM
- TGI (COLO 205 colon): 30.6 µM
- TGI (OVCAR-3 ovarian): 29 µM
- TGI (NCI-H226 lung): 40.3 µM
- TGI (XF 498 CNS): 30.7 µM
- TGI (M14 melanoma): 38 µM
- TGI (DMS 114 small cell lung): 33.5 µM
- TGI (IGROV1 ovarian): 36.6 µM
- TGI (TK-10 renal): 41.4 µM
- TGI (OVCAR-4 ovarian): 30.1 µM
- TGI (RXF-631 renal): 51.1 µM
- TGI (EKVX NSCLC): 33.5 µM
- TGI (SNB-78 CNS): 60.2 µM
- TGI (MALME-3M melanoma): > 100 µM
- TGI (SNB-75 CNS): 39.9 µM
- TGI (U251 CNS): 30.6 µM
- TGI (M19-MEL melanoma): 32.4 µM
- TGI (SK-OV-3 ovarian): 34.3 µM
- TGI (SN12C renal): 30.9 µM
- TGI (A549 NSCLC): 33 µM
- TGI (SW-620 colon): 31.3 µM
- TGI (DLD-1 colon): 32.7 µM
- TGI (SNB-19 CNS): 31.6 µM
- TGI (KM20L2 colon): 32.2 µM
- TGI (SK-MEL-28 melanoma): 31.8 µM
- TGI (NCI-H522 lung): 32.2 µM
- TGI (LOX IMVI melanoma): 32.2 µM
- TGI (DMS 273 small cell lung): 29.8 µM
- TGI (UACC-257 melanoma): > 100 µM

Structure (SMILES): COc1cc([C@@H]2c3cc4c(cc3[C@@H](NC(=O)c3cccc(N)c3)C3COC(=O)[C@@H]32)OCO4)cc(OC)c1O (some centres not stated)
- TGI (A498 renal): 8.08 µM
- TGI (OVCAR-8 ovarian): 14.8 µM
- TGI (CCRF-CEM leukemia): > 33 µM
- TGI (MOLT-4 leukemia): 2.33 µM
- TGI (HT29 colon): 21.3 µM
- TGI (UACC-62 melanoma): 7.94 µM
- TGI (786-0 renal): 2.3 µM
- TGI (HCC-2998 colon): 7.23 µM
- TGI (RXF 393 renal): 23.5 µM
- TGI (SR leukemia): 0.321 µM
- TGI (SF-295 CNS): 5.13 µM
- TGI (RPMI-8226 leukemia): 18.1 µM
- TGI (SF-268 CNS): 13.9 µM
- TGI (HOP-92 NSCLC): 15.9 µM
- TGI (HL-60(TB) leukemia): 2.11 µM
- TGI (HCT-15 colon): 19.7 µM
- TGI (K-562 leukemia): > 49.3 µM
- TGI (NCI-H23 lung): 2.22 µM
- TGI (CAKI-1 renal): 6.18 µM
- TGI (SF-539 CNS): 1.53 µM
- TGI (KM12 colon): 15 µM
- TGI (ACHN renal): 2.4 µM
- TGI (UO-31 renal): 26.1 µM
- TGI (OVCAR-5 ovarian): 12.8 µM
- TGI (LXFL 529 NSCLC): > 100 µM
- TGI (HOP-62 NSCLC): 0.0964 µM
- TGI (SK-MEL-2 melanoma): 10.1 µM
- TGI (HCT-116 colon): > 42.4 µM
- TGI (NCI-H460 lung): 1.97 µM
- TGI (SK-MEL-5 melanoma): 6.16 µM
- TGI (COLO 205 colon): > 100 µM
- TGI (OVCAR-3 ovarian): 30.2 µM
- TGI (NCI-H226 lung): 1.62 µM
- TGI (XF 498 CNS): 25 µM
- TGI (M14 melanoma): > 20.4 µM
- TGI (IGROV1 ovarian): > 41.6 µM
- TGI (TK-10 renal): 18.4 µM
- TGI (OVCAR-4 ovarian): > 66.9 µM
- TGI (RXF-631 renal): 18.5 µM
- TGI (EKVX NSCLC): 15.6 µM
- TGI (SNB-78 CNS): > 84.4 µM
- TGI (MALME-3M melanoma): 8.87 µM
- TGI (SNB-75 CNS): 11.6 µM
- TGI (U251 CNS): 4.51 µM
- TGI (M19-MEL melanoma): > 100 µM
- TGI (SK-OV-3 ovarian): > 22.9 µM
- TGI (SN12C renal): 3.78 µM
- TGI (A549 NSCLC): 2.55 µM
- TGI (SW-620 colon): 35 µM
- TGI (DLD-1 colon): > 67.2 µM
- TGI (SNB-19 CNS): 31.6 µM
- TGI (KM20L2 colon): 36 µM
- TGI (SK-MEL-28 melanoma): > 88.5 µM
- TGI (LOX IMVI melanoma): 12.7 µM
- TGI (DMS 273 small cell lung): 12.1 µM
- TGI (UACC-257 melanoma): > 100 µM

Structure (SMILES): Cc1cc(C)nc(NS(=O)(=O)c2ccc(NC(=O)c3cccc4c(Nc5ccc(S(=O)(=O)N=C(N)N)cc5)c5ccc(Cl)cc5nc34)cc2)n1
- TGI (A498 renal): > 100 µM
- TGI (OVCAR-8 ovarian): > 100 µM
- TGI (CCRF-CEM leukemia): > 100 µM
- TGI (MOLT-4 leukemia): 60.8 µM
- TGI (HT29 colon): > 100 µM
- TGI (UACC-62 melanoma): > 100 µM
- TGI (786-0 renal): 32.2 µM
- TGI (HCC-2998 colon): 43.5 µM
- TGI (RXF 393 renal): 36.5 µM
- TGI (SR leukemia): 80.5 µM
- TGI (SF-295 CNS): 53 µM
- TGI (RPMI-8226 leukemia): 63 µM
- TGI (SF-268 CNS): > 100 µM
- TGI (HCT-15 colon): > 100 µM
- TGI (K-562 leukemia): > 100 µM
- TGI (NCI-H23 lung): > 100 µM
- TGI (SF-539 CNS): 73.7 µM
- TGI (KM12 colon): > 100 µM
- TGI (ACHN renal): > 100 µM
- TGI (UO-31 renal): > 100 µM
- TGI (OVCAR-5 ovarian): > 100 µM
- TGI (LXFL 529 NSCLC): > 100 µM
- TGI (HOP-62 NSCLC): > 100 µM
- TGI (HCT-116 colon): 35.4 µM
- TGI (NCI-H460 lung): > 100 µM
- TGI (OVCAR-3 ovarian): 52.2 µM
- TGI (XF 498 CNS): > 100 µM
- TGI (M14 melanoma): > 100 µM
- TGI (DMS 114 small cell lung): > 100 µM
- TGI (TK-10 renal): > 100 µM
- TGI (RXF-631 renal): > 100 µM
- TGI (EKVX NSCLC): > 100 µM
- TGI (SNB-78 CNS): > 100 µM
- TGI (MALME-3M melanoma): > 100 µM
- TGI (SNB-75 CNS): > 100 µM
- TGI (U251 CNS): 31.4 µM
- TGI (M19-MEL melanoma): > 100 µM
- TGI (SK-OV-3 ovarian): > 100 µM
- TGI (SN12C renal): > 100 µM
- TGI (DLD-1 colon): 43.2 µM
- TGI (SNB-19 CNS): 53.3 µM
- TGI (KM20L2 colon): > 100 µM
- TGI (SK-MEL-28 melanoma): > 100 µM
- TGI (NCI-H522 lung): 39.8 µM
- TGI (LOX IMVI melanoma): 43.3 µM
- TGI (UACC-257 melanoma): 59.9 µM
